Data reported in PubChem BioAssay (NCI).
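Cultured in 96-well plates, cells were exposed to test compound for 48 hours across five concentrations. At the GI50, growth is halved. TGI denotes the concentration required for complete inhibition of growth.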

Tests used:
Test in all cases: NCI tumour cell line growth inhibition, 48 h
CCRF-CEM leukemia = test system: CCRF-CEM leukemia
HS 578T breast = test system: HS 578T breast
MDA-MB-231 breast = test system: MDA-MB-231 breast
OVCAR-3 ovarian = test system: OVCAR-3 ovarian
SK-MEL-28 melanoma = test system: SK-MEL-28 melanoma
SN12C renal = test system: SN12C renal
SNB-19 CNS = test system: SNB-19 CNS
RPMI-8226 leukemia = test system: RPMI-8226 leukemia

Row | SMILES | TGI (CCRF-CEM leukemia) [µM] | TGI (HS 578T breast) [µM] | TGI (MDA-MB-231 breast) [µM] | TGI (OVCAR-3 ovarian) [µM] | TGI (SK-MEL-28 melanoma) [µM] | TGI (SN12C renal) [µM] | TGI (SNB-19 CNS) [µM] | TGI (RPMI-8226 leukemia) [µM] | GI50 (OVCAR-3 ovarian) [nM] | GI50 (RPMI-8226 leukemia) [nM] | GI50 (SK-MEL-28 melanoma) [nM] | GI50 (SN12C renal) [nM] | GI50 (SNB-19 CNS) [nM]
1 | CCOC(=O)C(Cc1ccc(OC(=O)OC(C)(C)C)cc1)NC(=O)OC(C)(C)C (configuration not stated) | > 100 | > 100 | > 100 | > 100 | > 100 | > 100 | > 100 |  |  |  |  |  | 
2 | Clc1ccc(-c2cn3c(nc4ccccc43)c(/C=C/c3ccco3)n2)cc1 |  | 61.8 | > 100 | > 100 | > 100 | > 100 | > 100 | 39.8 |  |  |  |  | 
3 | O=C(/C=C/c1cccc(Oc2ccccc2)c1)NCc1ccc(C(=O)NCCc2ccccc2)cc1 |  | > 100 | > 100 | > 100 | > 100 | > 100 | > 100 | > 100 |  |  |  |  | 
4 | CC(O)(P(=O)(O)O)P(=O)(O)OCC(O)CN1CCOCC1 (configuration not stated) | > 100 | > 100 | > 100 |  | > 100 |  | > 100 | > 100 |  |  |  |  | 
5 | Clc1cccc(NN=Nc2ccc(-c3nc4ccccc4s3)cc2)c1 | 37.7 | > 100 |  | > 100 | > 100 | 62.2 | > 100 | > 100 |  |  |  |  | 
6 | N=c1c2c(=S)n(-c3ccccc3)c(=S)n(-c3ccccc3)c2nc(SCCN2CCCC2)n1-c1ccccc1 | 1.25 | > 100 | 3.52 | 3.38 | > 38.7 | 3.46 | 31.6 |  |  |  |  |  | 
7 | COc1cc(OC)c2c3c(OC)cc(OC)c4c(=O)c(O)c(C[C@@H](C)O)c(c5c(C[C@@H](C)O)c(O)c(=O)c1c25)c43 |  |  | 25.3 | 9.4 | 42 | 68.6 | > 100 |  |  |  |  |  | 
8 | CCOC(=O)C(NC(=O)c1ccccc1)(N1CCN(c2cc3c(cc2F)c(=O)c(C(=O)O)cn3CC)CC1)C(F)(F)F (configuration not stated) | 86.2 | > 100 | 82.9 | > 100 |  | > 100 | > 100 | 69 |  |  |  |  | 
9 | O=C1CC[C@@]2(O)[C@H]3Cc4ccc(-c5ccccc5)c5c4[C@@]2(CCN3CC2CC2)[C@H]1O5 | 49.7 |  | 31.8 | 33.6 | > 100 | 72.4 | 59.6 | 47.8 |  |  |  |  | 
10 | CC(C)=CCc1[nH]c2ccccc2c1C1=C(O)C(=O)C(c2c(CC=C(C)C)[nH]c3ccccc23)=C(O)C1=O | 6.83 | 73.8 | 3.38 | 3.92 | 2.9 | 4.79 | 16.4 |  |  |  |  |  | 
11 | CC(=O)Oc1ccc2c(c1)CC[C@@H]1C2[C@@H](O[N+](=O)[O-])C[C@@]2(C)C1CC[C@@H]2O[N+](=O)[O-] (some centres not stated) | 38.8 | 47.7 |  | 28.5 | 28.7 | 29.5 | 32.4 | 31 |  |  |  |  | 
12 | COc1c(-c2nc3nc(N4CCN(C)CC4)ccc3[nH]2)cc(OC)c2c1nc(COC(C)=O)n2C |  | > 100 | > 100 | > 100 |  | > 100 | > 100 |  |  |  |  |  | 
13 | O=C(NC(=O)c1cc(-c2ccccc2)n[nH]1)c1ccccc1 | > 100 | > 100 | > 100 | > 100 | > 100 | > 100 |  |  |  |  |  |  | 
14 | C/C=C1\CN(C(=O)OC(C)(C)C)C1C(=O)OC(C)(C)C (configuration not stated) | > 100 | > 100 |  | > 100 | > 100 | > 100 | > 100 | > 100 |  |  |  |  | 
15 | CC(=O)Oc1c2c(c3n(c1=O)CCCC3)C(=O)N(c1ccccc1)C2=O | > 100 | > 100 | > 100 | > 100 | > 100 | > 100 | > 100 |  |  |  |  |  | 
16 | Cc1ccc(C2=C(C#N)C(N)OC3=C2COc2ccccc23)cc1 (configuration not stated) | 76 |  | > 100 | 41.9 | > 100 | 74.4 | 41.9 | > 100 |  |  |  |  | 
17 | S=c1[nH]n2c(CCCCCCCCc3nnc4sc(=S)[nH]n34)nnc2s1 | > 100 |  | > 100 | > 100 | > 100 | > 100 | > 100 | > 100 |  |  |  |  | 
18 | CCN(CC)CCN1C(=O)c2c(c3c4ccccc4[nH]c3c3ccc4ccccc4c23)C1=O |  |  |  | 3.03 | 3.18 | 3.22 | 2.88 | 5.65 | 1650 | 2010 | 1740 | 1710 | 1500
19 | Cc1oc2c(c1C)S(=O)(=O)C(C#N)=C(N(C)C)N2 |  | > 100 | > 100 | > 100 | > 100 | > 100 | > 100 | > 100 |  |  |  |  | 
20 | Cn1ncc2c(Cl)ncnc21 |  | > 100 |  | > 100 | > 100 | > 100 | > 100 | > 100 |  |  |  |  | 
21 | O=C(CCC=C(S(=O)(=O)c1ccccc1)S(=O)(=O)c1ccccc1)c1ccccc1 |  | 31 | 22.9 | 17.4 | 34.6 | 13.1 | 28.4 |  |  |  |  |  | 
